Experimental data taken from PubChem BioAssay (NCI).
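Method: 48-hour compound exposure of cells in 96-well plates, five concentrations, linear interpolation of endpoints. The concentration for 50% growth inhibition is given as GI50. TGI marks complete inhibition of growth.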

Legend:
Test in all cases: NCI tumour cell line growth inhibition, 48 h
A498 renal = system: A498 renal
A549 NSCLC = system: A549 NSCLC
ACHN renal = system: ACHN renal
MCF7 breast = system: MCF7 breast
NCI-H460 lung = system: NCI-H460 lung
OVCAR-5 ovarian = system: OVCAR-5 ovarian
OVCAR-8 ovarian = system: OVCAR-8 ovarian
SF-268 CNS = system: SF-268 CNS
SF-295 CNS = system: SF-295 CNS
SK-MEL-2 melanoma = system: SK-MEL-2 melanoma

| SMILES | TGI (A498 renal) [µM] | TGI (A549 NSCLC) [µM] | TGI (ACHN renal) [µM] | TGI (MCF7 breast) [µM] | TGI (NCI-H460 lung) [µM] | TGI (OVCAR-5 ovarian) [µM] | TGI (OVCAR-8 ovarian) [µM] | TGI (SF-268 CNS) [µM] | TGI (SF-295 CNS) [µM] | TGI (SK-MEL-2 melanoma) [µM] | GI50 (A498 renal) [µM] | GI50 (A549 NSCLC) [µM] | GI50 (ACHN renal) [µM] | GI50 (MCF7 breast) [µM] | GI50 (NCI-H460 lung) [µM] | GI50 (OVCAR-5 ovarian) [µM] | GI50 (OVCAR-8 ovarian) [µM] | GI50 (SF-268 CNS) [µM] | GI50 (SF-295 CNS) [µM] | GI50 (SK-MEL-2 melanoma) [µM] |
| --- | --- | --- | --- | --- | --- | --- | --- | --- | --- | --- | --- | --- | --- | --- | --- | --- | --- | --- | --- | --- |
| O=C(O[C@H]1CCN2C[C@H]3C[C@H](CN4C(=O)CCC[C@H]34)[C@@H]2C1)c1ccc(O)cc1 | > 100 | > 100 | > 100 | > 100 | > 100 | > 100 | > 100 | > 100 | > 100 | > 100 |  |  |  |  |  |  |  |  |  |  |
| Cc1ccc(S(=O)(=O)N2CCc3ccc(O)c4c3C2Cc2ccc3c(c2-4)OCO3)cc1 (centres undefined) | 7.09 | 12.4 | > 60.8 | 10.2 | 7.53 | 45.8 | 20.7 | 23.3 | 12 | 7.33 | 0.898 | 0.808 | 0.769 | 0.317 | 0.539 | 3.19 | 1.41 | 1.01 | 1.38 | 1.34 |
| Nc1ccc(Sc2c3ccccc3nc3ccccc23)cc1 | > 100 | > 100 | 28.3 | 28.8 | 49.5 | 52 | 28.6 | 40.5 | 47.5 | 34.1 |  |  |  |  |  |  |  |  |  |  |
| COc1cccc(Nc2nccc(-c3cnn4ncccc34)n2)c1 | 0.126 |  | > 25 | > 25 | > 25 | > 25 | > 25 | 1.42 | > 25 | 0.138 | 0.0483 | 0.0698 | 0.0456 | 0.076 | 0.0754 | 0.0812 | 0.0681 | 0.0721 | 0.0496 | 0.0572 |
| O=C(/C=C/OC(=O)c1cccc(Cl)c1)c1ccc(Cl)cc1 | 96.9 | > 100 | > 100 | > 100 | > 100 | > 100 | > 100 | > 100 | > 80.1 | > 100 | > 40.3 | > 100 | 52.3 | 48.7 | > 100 | > 100 | 46.4 | 41.9 | 27.3 | > 73.1 |
| CN1CCN(Cc2ccc(NC(=O)c3cncc(C#Cc4cnc(N)c5cnccc45)c3)cc2C(F)(F)F)CC1 | 0.363 | 7.79 | 1.43 | 8.75 | 3.31 | 4.39 | 8.09 | 6.93 | 7.07 | 0.283 | 0.12 | 0.511 | 0.201 | 0.921 | 0.218 | 0.162 | 0.253 | 0.234 | 0.799 | 0.108 |
| C=C1C(=O)O[C@H]2[C@H]1CC/C(COC(=O)NCCCCCCCCNC(=O)OC/C1=C/CC[C@@]3(C)O[C@H]3[C@H]3OC(=O)C(=C)[C@@H]3CC1)=C\CC[C@@]1(C)O[C@@H]21 | 3.14 | 3.51 | 0.662 | 0.833 | 3.98 | 0.912 | 1.24 | 2.69 | 4.82 | 2.8 | 1.69 | 1.7 | 0.258 | 0.221 | 1.75 | 0.269 | 0.326 | 0.999 | 1.95 | 0.601 |
| C[CH2][Sn]([CH2]C)([O]C(=O)c1ccc(OC)c(OC)c1OC)[O]C(=O)c1ccc(OC)c(OC)c1OC | 44 | > 100 | > 78.9 | 49.2 | > 100 | > 100 | > 100 | > 46.4 | > 100 | 81.7 | 16.3 | > 100 | 51.4 | 24.7 | > 100 | > 85.4 | > 100 | 28 | > 100 | 28.7 |
| Cc1ccc(S(=O)(=O)Nc2ccc(-c3cc(-c4cccc(F)c4)c(C#N)c(N)n3)cc2)cc1 | 16.2 | 15.7 | 2.92 | 10 | 12.6 | 3.46 | 7.83 | 12.8 | 14.5 | 4.22 | 3.7 | 3.11 | 1.58 | 2.32 | 3.53 | 1.73 | 2.43 | 2.97 | 3.33 | 1.96 |
| COCc1c(-c2ccc(NC(=O)Nc3cc(C(F)(F)F)ccc3F)c(F)c2)c2c(N)ncnn2c1CN1CCOCC1 | 0.248 | > 10 | > 10 | 8.23 | 9.74 | > 10 | > 10 | 5.2 | 6.54 | 2.58 | 0.0166 | 2.53 | 1.48 | 2.2 | 2.24 | 3.32 | 2.66 | 1.13 | 1.56 | 1.07 |
